Laboratory results as given in US9546129B2, “DTPA prodrugs, compositions thereof, and methods of using the same” (priority 2012, dated 2017).
Marks after values point to notes of the source that are not given here.

Tested on: ^241Am contaminated beagle dogs (inhalation)
Assay: Decorporation efficacy in beagle dogs after ^241Am nitrate inhalation (Example 2)
Assay type: in vivo, beagle dog
Details: for Average percent recovered activity, Feces / Average percent recovered activity, Urine: cumulative, Mean (SEM); for Average percent recovered activity, GIT / Average percent recovered activity, Kidney / Average percent recovered activity, Liver / Average percent recovered activity, Lung / Average percent recovered activity, Ovaries / Average percent recovered activity, Soft Tissue / Average percent recovered activity, Spleen / Average percent recovered activity, TBLN / Average percent recovered activity, Testes / Average percent recovered activity, Total Bone: day 14, Mean (SEM)
Method: The efficacy of C2E2 of Lot 050 obtained using Method 2 was evaluated in male and female beagle dogs administered a nitrate complex of americium-241 (^241Am) via inhalation (INH). C2E2 was administered 24 hours post ^241Am inhalation exposure. Animals were monitored and urine and feces were collected daily. Cages were rinsed daily. Animals were euthanized 14 days later and tissues collected. Tissues were processed and analyzed for ^241Am content. The in-life measurements and biokinetics of ^241Am with and without chelation treatment are described.
Sixteen (16) male and female beagle dogs underwent a 14-day quarantine period for acclimation. Once released from quarantine, animals were weighed and that weight was used to randomize the animals into the study. Dogs were 13.3±2.2 months of age at study initiation and weighed 8.9±1.2 kg. After randomization, the animals were acclimated to metabolism cages for approximately 24 hours prior to radionuclide inhalation administration of ^241Am(III)-nitrate at time 0 followed by oral gavage administration of vehicle (water) or 100, 300, or 500 mg/kg C2E2 at 24 hours post inhalation exposure. Animals were placed in metabolism cages for the duration of the in-life phase.
Animals were euthanized 14 days after administration of ^241Am. A full necropsy was conducted and liver, spleen, kidneys, lungs and trachea, muscle samples (right and left quadriceps), GI tract (stomach and esophagus, upper and lower intestine), gonads, two femurs, lumbar vertebrae (L1-L4), paws and tail, TBLN, and all soft tissue remains were collected. The brain and eyes were removed from the skull and combined with the soft tissue remains. The skeleton was defleshed and all bone samples collected for analysis. Pelt was not analyzed for ^241Am content.
Urine, feces, cage rinse, and all tissue samples were processed by heat and chemical treatments. The samples were analyzed by gamma pulse height analysis.
For the study, stock C2E2 (L/N: 020WJL050) was obtained as a white powder and stored at 2-8° C. The C2E2 was weighed out and dissolved in vehicle, DI water. Solutions were prepared at 20 mg/mL, 60 mg/mL, and 100 mg/mL on each day of dosing. The formulation was protected from light by wrapping the container in aluminum foil. Metal-free spatulas, glassware, and stir bars were used when weighing and preparing the formulation.
On the morning of exposure, animals were fasted and sedated with acepromazine (0.05 mg/kg) by intramuscular administration. Dogs were anesthetized with isoflurane (5%). A latex mask was placed over the muzzle to minimize external contamination of the dog. The latex-covered muzzle was placed into the exposure plenum where a mixture of oxygen and isoflurane were continuously flowing and being monitored. Oxygen in the box was maintained at 45-55% and isoflurane was delivered as needed (2-3% in oxygen) to ensure the dog remained anesthetized. Aerosols were generated from the ^241Am nitrate solution using a Hospitec nebulizer operated at 10 psi. The aerosol was transited through a tube furnace operating at 70-80° C. to dry the aerosol and minimize the amount of acid present.
The exhaust flow was 12.2 L/min. Aerosols were collected on Pallflex® FiberFilm™ filters at a flow rate of 0.49 L/min for filter samples and 1.95 L/min for cascade impactor samples. Filters were placed in 20-mL vials with 5 mL of 7N HNO3 and vortexed for 30 seconds. The filters were removed and placed singly into another 20-mL vial. A […] aliquot was removed from the original vial. The filter and the aliquot were individually analyzed for ^241Am and the amount collected on the filter was determined. The aerosol concentration was determined to be 1155±223 nCi/L. The particle size was determined to be 0.63 μm AMAD (activity median aerodynamic diameter) with a 1.72 geometric standard deviation (GSD). Animals were exposed for 8 minutes. […]

[1] = C2E2 100 mg/kg (low dose) vs untreated control, dogs, 100 mg/kg
[2] = C2E2 100 mg/kg oral 24 h after ^241Am inhalation, dogs
[3] = C2E2 300 mg/kg (mid dose) vs untreated control, dogs, 300 mg/kg
[4] = C2E2 300 mg/kg oral 24 h after ^241Am inhalation, dogs
[5] = C2E2 500 mg/kg (high dose) vs untreated control, dogs, 500 mg/kg
[6] = C2E2 500 mg/kg oral 24 h after ^241Am inhalation, dogs
[7] = treated groups vs controls, dose not specified

CCOC(=O)CN(CCN(CCN(CC(=O)O)CC(=O)OCC)CC(=O)O)CC(=O)O [C2E2, 6,9-bis(carboxymethyl)-3-(2-ethoxy-2-oxoethyl)-11-oxo-12-oxa-3,6,9-triazatetradecan-1-oic acid]
Percent ^241Am content reduction in tissue, GIT [1]: 43.9%
Percent ^241Am content reduction in tissue, Gonads [1]: 51.1%
Percent ^241Am content reduction in tissue, Kidneys [1]: 52.4%
Percent ^241Am content reduction in tissue, Liver [1]: 29.7%
Percent ^241Am content reduction in tissue, Lungs [1]: 30.6%
Percent ^241Am content reduction in tissue, Soft Tissue [1]: 47.1%
Percent ^241Am content reduction in tissue, Spleen [1]: 47.7%
Percent ^241Am content reduction in tissue, TBLN [1]: 22.9%
Percent ^241Am content reduction in tissue, Total Bone [1]: 41.6%
Average percent recovered activity, Feces [2]: 31.78 (3.21) %
Average percent recovered activity, Urine [2]: 22.35 (0.56)** %
Average percent recovered activity, GIT (C2E2 100 mg/kg, dogs): 0.53 (0.05)** %
Average percent recovered activity, Kidney (C2E2 100 mg/kg, dogs): 0.37 (0.03)** %
Average percent recovered activity, Liver (C2E2 100 mg/kg, dogs): 19.13 (1.34)** %
Average percent recovered activity, Lung (C2E2 100 mg/kg, dogs): 9.69 (1.77)* %
Average percent recovered activity, Ovaries (C2E2 100 mg/kg, dogs): 0.001 (0.000) %
Average percent recovered activity, Soft Tissue (C2E2 100 mg/kg, dogs): 1.08 (0.07)** %
Average percent recovered activity, Spleen (C2E2 100 mg/kg, dogs): 0.16 (0.03) %
Average percent recovered activity, TBLN (C2E2 100 mg/kg, dogs): 0.028 (0.002) %
Average percent recovered activity, Testes (C2E2 100 mg/kg, dogs): 0.003 (0.001)* %
Average percent recovered activity, Total Bone (C2E2 100 mg/kg, dogs): 14.90 (1.97)** %
Percent ^241Am content reduction in tissue, GIT [3]: 58.2%
Percent ^241Am content reduction in tissue, Gonads [3]: 66.3%
Percent ^241Am content reduction in tissue, Kidneys [3]: 63.0%
Percent ^241Am content reduction in tissue, Liver [3]: 51.0%
Percent ^241Am content reduction in tissue, Lungs [3]: 48.2%
Percent ^241Am content reduction in tissue, Soft Tissue [3]: 51.8%
Percent ^241Am content reduction in tissue, Spleen [3]: 74.8%
Percent ^241Am content reduction in tissue, TBLN [3]: 31.7%
Percent ^241Am content reduction in tissue, Total Bone [3]: 45.5%
Percent change in excretion, Feces [3]: 155%
Average percent recovered activity, Feces [4]: 41.85 (4.43)** %
Average percent recovered activity, Urine [4]: 21.93 (2.26)** %
Average percent recovered activity, GIT (C2E2 300 mg/kg, dogs): 0.39 (0.06)** %
Average percent recovered activity, Kidney (C2E2 300 mg/kg, dogs): 0.28 (0.04)** %
Average percent recovered activity, Liver (C2E2 300 mg/kg, dogs): 13.35 (1.51)** %
Average percent recovered activity, Lung (C2E2 300 mg/kg, dogs): 7.23 (0.89)** %
Average percent recovered activity, Ovaries (C2E2 300 mg/kg, dogs): 0.001 (0.001)* %
Average percent recovered activity, Soft Tissue (C2E2 300 mg/kg, dogs): 0.99 (0.12)** %
Average percent recovered activity, Spleen (C2E2 300 mg/kg, dogs): 0.07 (0.02)** %
Average percent recovered activity, TBLN (C2E2 300 mg/kg, dogs): 0.024 (0.004) %
Average percent recovered activity, Testes (C2E2 300 mg/kg, dogs): 0.003 (0.001)* %
Average percent recovered activity, Total Bone (C2E2 300 mg/kg, dogs): 13.93 (1.30)** %
Percent ^241Am content reduction in tissue, GIT [5]: 54.1%
Percent ^241Am content reduction in tissue, Gonads [5]: 55.3%
Percent ^241Am content reduction in tissue, Kidneys [5]: 61.8%
Percent ^241Am content reduction in tissue, Liver [5]: 71.7%
Percent ^241Am content reduction in tissue, Lungs [5]: 63.5%
Percent ^241Am content reduction in tissue, Soft Tissue [5]: 50.7%
Percent ^241Am content reduction in tissue, Spleen [5]: 69.0%
Percent ^241Am content reduction in tissue, TBLN [5]: 35.0%
Percent ^241Am content reduction in tissue, Total Bone [5]: 48.3%
Percent change in excretion, Urine [5]: 1310%
Average percent recovered activity, Feces [6]: 36.53 (1.18)* %
Average percent recovered activity, Urine [6]: 35.63 (0.70)** %
Average percent recovered activity, GIT (C2E2 500 mg/kg, dogs): 0.44 (0.05)** %
Average percent recovered activity, Kidney (C2E2 500 mg/kg, dogs): 0.29 (0.01)** %
Average percent recovered activity, Liver (C2E2 500 mg/kg, dogs): 7.71 (0.35)** %
Average percent recovered activity, Lung (C2E2 500 mg/kg, dogs): 5.10 (0.31)** %
Average percent recovered activity, Ovaries (C2E2 500 mg/kg, dogs): 0.001 (0.000) %
Average percent recovered activity, Soft Tissue (C2E2 500 mg/kg, dogs): 1.01 (0.02)** %
Average percent recovered activity, Spleen (C2E2 500 mg/kg, dogs): 0.09 (0.02)* %
Average percent recovered activity, TBLN (C2E2 500 mg/kg, dogs): 0.023 (0.003) %
Average percent recovered activity, Testes (C2E2 500 mg/kg, dogs): 0.003 (0.001)* %
Average percent recovered activity, Total Bone (C2E2 500 mg/kg, dogs): 13.20 (0.86)** %
In-life observations (dogs, single oral 100, 300, 500 mg/kg, one 500 mg/kg animal (4004) had foamy emesis): no unusual or adverse effects
Reduction of ^241Am content, TBLN [7]: About 50%
Reduction of ^241Am content, total bone content [7]: ~40%
